Measured values as given in article PMC3528769, “Comparative Study of the Fatty Acid Binding Process of a New FABP from Cherax quadricarinatus by Fluorescence Intensity, Lifetime and Anisotropy” (PLoS ONE, 2012).
“And” between values parts separate entries of the source, which are not always exact repeats. Equal entries are not always repeated. Where two headings read alike, the source gives them in different places. Each block holds one compound with its values, some of them ahead of it.

How the values were obtained:
[1] = molecular target: T1, Cq-FABP (Cherax quadricarinatus, UniProt L0I6Z9); assay: Time-resolved Trp fluorescence lifetime (single-photon counting) with ANS and PA; type: binding; conditions: for FRET efficiency: from lifetimes; for Δ%FRET,max based on lifetime values: without versus with 70 µM PA
T1 sequence (L0I6Z9 entry or part of it): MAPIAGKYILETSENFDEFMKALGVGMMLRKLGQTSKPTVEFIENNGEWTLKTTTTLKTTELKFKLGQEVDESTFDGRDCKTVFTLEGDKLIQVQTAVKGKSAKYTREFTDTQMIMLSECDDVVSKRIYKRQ
Experimental: The distribution of fluorescence lifetimes of tryptophan was determined by monitoring the intensity decay, I(t), using the single-photon counting technique [27]–[31]. Briefly, the excitation light pulse source was a Ti:sapphire laser (Mai Tai femtosecond laser, Spectra Physics, Mountain View, CA, USA) associated with a third harmonic generator tuned to 296 nm. The laser frequency was reduced from 80 to 8 MHz using a pulse picker (Spectra Physics). Fluorescence emission was detected by a microchannel plate photomultiplier (Hamamatsu model R3809U-05) through a monochromator (ARC SpectraPro-150) set at 340 nm (Δλ = 15 nm) with the emission polarizer set at the magic angle (54.7°). A time-correlated single-photon counting SPC-430 card (Becker–Hickl, Berlin, Germany) was used for the acquisition. Experiments were performed at 25°C using 5 µM Cq-FABP in buffer C. The average fluorescence lifetime values (τm), as reported in Table 1, were calculated from the lifetime distributions recovered by the maximum entropy method, [29], [32]. For example, Cq-FABP alone was characterized by three fluorescence lifetimes (τ1 = 0.6 ns (6%), τ2 = 2.67 ns (53%), τ3 = 3.89 (41%); τm = 3.04 ns).

[2] = molecular target: FABP4; design: method as in PMID 11827549; conditions: ref [6]; read-out: Kd of ANS; cited from earlier work
[3] = molecular target: T1, Cq-FABP; assay: ANS fluorescence intensity titration and equilibrium displacement of ANS by fatty acids; type: binding
Experimental: (§1) Fluorescence emission spectra were measured at 25°C on a Cary-Eclipse spectrofluorimeter (Varian, CA, USA) equipped with a thermostated cell holder, using solutions (70 µl) placed in microcuvettes (pathlength, 0.3 cm). The binding of non-fluorescent fatty acids (PA, OA, LA, EPA and DHA) to Cq-FABP was measured indirectly by equilibrium displacement experiments using ANS as a fluorescent probe, either by measuring the fluorescence emission of ANS or by measuring the FRET between tryptophan and ANS, resulting in the quenching of donor fluorescence. The excitation wavelength was then set at 296 or 350 nm for tryptophan or ANS, respectively; the slit widths and PMT voltage were adjusted to optimize the fluorescence signal at 25°C. For titration experiments, the fluorescence emission spectrum of tryptophan or ANS was measured and the integrated fluorescence signal of tryptophan (315–360 nm) or ANS (440–600 nm) was calculated. For samples containing high concentrations of ANS, the inner-filter effect was not negligible and was corrected. UV-visible absorption spectra were carried out on a Uvikon XL spectrophotometer.
The equilibrium dissociation constant (Kd,FA) relative to the binding of fatty acids (FA) to Cq-FABP was determined by competition experiments using ANS displacement and linear regression of the following relationship: [drawing 1] (1) where Kd,ANS is the dissociation constant relative to the binding of ANS to the fatty acid binding site, Kd ^app ,ANS is the apparent dissociation constant of ANS obtained in the presence of a given fatty acid concentration.

[4] = molecular target: T1, Cq-FABP; assay: Steady-state FRET between the single Trp (W49) and ANS, Trp quenching and recovery by PA; type: binding
Experimental: as §1

[5] = molecular target: T1, Cq-FABP; assay: BODIPY-C16 steady-state fluorescence anisotropy titration and competition; type: binding
Experimental: The binding of 4,4-difluoro-5, 7-dimethyl-4-bora-3a, 4a-diaza-s-indacene-3-hexadecanoic acid (BODIPY-C16) to Cq-FABP was investigated by measuring the steady-state fluorescence anisotropy parameter using a Beacon instrument (PanVera, Madison, USA), in a cell thermostatically held at 25°C. The excitation and emission bandpass filters were centered at 488 nm (±6 nm) and 525 nm (±15 nm), respectively. Titration experiments were performed in buffer C (supplemented with 10% DMSO (v/v)) by maintening a constant concentration of BODIPY-C16 (200 nM) and by adding increasing concentrations of Cq-FABP. Using a vertical direction for the polarized excitation source, the steady-state fluorescence anisotropy (r) was calculated according to: [drawing 3] (3) where IV and IH correspond to the parallel (vertical) and perpendicular (horizontal) fluorescence emission intensity components, respectively. The fraction of BODIPY-C16/Cq-FABP complexes (i.e. the fraction of BODIPY-C16 bound to Cq-FABP), fb, was calculated using the following relationship: [drawing 4] (4) where r is the measured fluorescence anisotropy value, rf and rb correspond to the fluorescence anisotropy values of free BODIPY-C16 (ligand in the free state, measured in the absence of Cq-FABP) and Cq-FABP-bound BODIPY-C16 (ligand in the bound state, corresponding to the maximum anisotropy value found at the plateau), respectively. […] The Kd characterizing the BODIPY-C16/Cq-FABP complex (Kd,C16) was calculated by fitting the plot of fb versus [Cq-FABP] using the Graphpad Prism 5.0 software.
The fluorescence anisotropy-based assay was also used in competition experiments to calculate the Kd values (Kd,FA) characterizing non-fluorescent fatty acids. The measurement of the apparent Kd value characterizing the BODIPY-C16/Cq-FABP complex (Kd ^app ,C16) under different concentration conditions for the non-fluorescent FA allows the calculation of Kd,FA according to: [drawing 5] (5) where Kd,C16 corresponds to the Kd characterizing the BODIPY-C16/Cq-FABP complex (in the absence of any non-fluorescent FA) and Kd ^app ,C16 corresponds to the apparent dissociation constant obtained for a given concentration of non-fluorescent FA. The calculation of Kd,FA was also performed in an independent manner by measuring the IC50 value characterizing each non-fluorescent FA. In this approach, the number of complexes corresponding to [C16] = 200 nM and [Cq-FABP] = 5 µM was varied by increasing the concentration of non-fluorescent FA. The IC50 value corresponds to the concentration of non-fluorescent FA that displaces 50% of C16 from the fatty acid binding site of Cq-FABP and is related to Kd,FA through the Cheng-Prusoff relationship: [drawing 6] (6)

[6] = molecular target: T1, Cq-FABP; assay: DAUDA fluorescence intensity enhancement; type: binding; conditions: 5 µM Cq-FABP versus free DAUDA (Fig. S3A)
Description: Cis-parinaric acid and DAUDA were characterized by fluorescence emission in the 380–500 nm region (λmax,em: 410 nm) and in the 480–650 nm region (λmax,em: 540 nm), respectively (excitation wavelengths were set at 320 or 335 nm for cis-parinaric acid or DAUDA, respectively). The fluorescence intensity enhancement upon binding to Cq-FABP was monitored on a Cary-Eclipse spectrofluorimeter as indicated above. All the fluorescence emission intensities were corrected for the inner-filter effect. The emission intensity of a given fluorophore in the presence of Cq-FABP was also systematically corrected for the emission intensity of the free fluorophore. The calculation of Kd,FA was performed by measuring the IC50 value (inhibition concentration 50%) characterizing each non-fluorescent FA. As DAUDA poorly binds to Cq-FABP (see results section), only cis-parinaric acid (CPA) was used for measuring IC50 values. Titration and equilibrium displacement experiments using CPA were performed in buffer C (supplemented with 10% DMSO (v/v)). For the determination of IC50 values, the number of complexes corresponding to [CPA] = 7 µM and [Cq-FABP] = 5 µM was varied by increasing the concentration of non-fluorescent FA. […]

[7] = molecular target: T1, Cq-FABP; assay: cis-Parinaric acid fluorescence intensity titration and competitive displacement; type: binding
Description: Cis-parinaric acid and DAUDA were characterized by fluorescence emission in the 380–500 nm region (λmax,em: 410 nm) and in the 480–650 nm region (λmax,em: 540 nm), respectively (excitation wavelengths were set at 320 or 335 nm for cis-parinaric acid or DAUDA, respectively). The fluorescence intensity enhancement upon binding to Cq-FABP was monitored on a Cary-Eclipse spectrofluorimeter as indicated above. All the fluorescence emission intensities were corrected for the inner-filter effect. The emission intensity of a given fluorophore in the presence of Cq-FABP was also systematically corrected for the emission intensity of the free fluorophore. The calculation of Kd,FA was performed by measuring the IC50 value (inhibition concentration 50%) characterizing each non-fluorescent FA. As DAUDA poorly binds to Cq-FABP (see results section), only cis-parinaric acid (CPA) was used for measuring IC50 values. Titration and equilibrium displacement experiments using CPA were performed in buffer C (supplemented with 10% DMSO (v/v)). For the determination of IC50 values, the number of complexes corresponding to [CPA] = 7 µM and [Cq-FABP] = 5 µM was varied by increasing the concentration of non-fluorescent FA. The IC50 value corresponds to the concentration of non-fluorescent FA that displaces 50% of CPA from the fatty acid binding site of Cq-FABP and is related to Kd,FA through the Cheng-Prusoff relationship: [drawing 2] (2)

[8] = 200 nM BODIPY-C16, 5 µM Cq-FABP, read-out: IC50 (displaces 50% of BODIPY-C16 from the fatty acid binding site)
[9] = calculated from the IC50 values (Eq. 2) using the fluorescence intensity of cis-parinaric acid, 7 µM CPA, 5 µM Cq-FABP, read-out: Kd,FA
[10] = calculated from equilibrium displacement experiments using the fluorescence intensity of ANS (Eq. 1), read-out: Kd,FA
[11] = calculated from the IC50 values, using Eq. 6, 200 nM BODIPY-C16, 5 µM Cq-FABP, read-out: Kd,FA
[12] = calculated from the Kd app,C16 values, using Eq. 5, 200 nM BODIPY-C16, read-out: Kd,FA

SMILES: O=S(=O)(O)c1cccc2cccc(Nc3ccccc3)c12 [ANS, 8-Anilino-1-naphthalenesulfonate]
Average fluorescence Lifetime, τm ([1]; 5 µM Cq-FABP + 5 µM ANS): 2.85 ns
FRET efficiency ([1]; 5 µM Cq-FABP + 5 µM ANS): 6.2%
Average fluorescence Lifetime, τm ([1]; 5 µM Cq-FABP + 10 µM ANS): 2.75 ns
FRET efficiency ([1]; 5 µM Cq-FABP + 10 µM ANS): 9.5%
Average fluorescence Lifetime, τm ([1]; 5 µM Cq-FABP + 50 µM ANS): 2.39 ns
FRET efficiency ([1]; 5 µM Cq-FABP + 50 µM ANS): 21.4%
Average fluorescence Lifetime, τm ([1]; 5 µM Cq-FABP + 200 µM ANS): 2.00 ns
FRET efficiency ([1]; 5 µM Cq-FABP + 200 µM ANS): 34.2%
Δ%FRET,max based on lifetime values ([1]; [ANS] = 50 µM): 12.5%
Δ%FRET,max based on lifetime values ([1]; [ANS] = 200 µM): 11.2%
Kd [2]: 1.7 µM
Kd ([3]; average of the Kd,ANS values from the intensity and FRET procedures, read-out: average Kd,ANS): 27.9 µM
Kd ([3]; direct titration, 5 µM Cq-FABP, 25°C, after removing free ANS and non specific contributions (Fig. 2B), read-out: Kd,ANS): 30 µM and ~30 µM
Kd ([3]; from displacement amplitude ΔI by PA plotted against [ANS] (Fig. 2D), 5 µM Cq-FABP, read-out: Kd,ANS): 26 µM
Kd ([3]; y-intercept of Kd app,ANS versus [PA] linear regression (Fig. 3B), read-out: Kd,ANS): 27.8 µM
Kd ([4]; from Δ%FRET versus [ANS] (Fig. 4D), binding to fatty acid binding site only, read-out: Kd,ANS): 27.6 µM
Kd ([4]; quenching of Trp steady-state emission by ANS, specific plus non specific binding (Fig. 4A), read-out: apparent Kd of ANS): ~100 µM
Δ%FRET,max (plateau) ([4]; steady-state fluorescence intensities, amplitude between [PA]0 and [PA]+∞ (Fig. 4D)): 10%

SMILES: Cc1cc(C)n2c1C=C1C=CC(CCCCCCCCCCCCCCCC(=O)O)=[N+]1[B-]2(F)F [BODIPY-C16, 4,4-difluoro-5,7-dimethyl-4-bora-3a, 4a-diaza-s-indacene-3-hexadecanoic acid, reference compound]
Kd ([5]; direct titration, 200 nM BODIPY-C16, increasing Cq-FABP, 25°C, 10% DMSO, read-out: Kd,C16): 3.1 µM

SMILES: CN(C)c1cccc2c(S(=O)(=O)NCCCCCCCCCCC(=O)O)cccc12 [DAUDA, 11-((5-dimethylaminonaphthalene-1-sulphonyl)amino)-undecanoic acid, reference compound]
binding of DAUDA by fluorescence enhancement [6]: does not bind or only poorly binds
IC50 [5, 8]: 263 µM
Kd ([5]; from IC50 according to the Cheng-Prusoff relationship, 200 nM BODIPY-C16, 5 µM Cq-FABP, read-out: apparent Kd of Cq-FABP/DAUDA complex): ~250 µM

SMILES: CCCCCCCC/C=C\CCCCCCCC(=O)O [OA, oleic acid]
Kd [7]: 1.3 ± 0.6 µM
Kd [3]: 2.4 ± 0.4 µM
IC50 [5]: 2.23 µM
Kd ([5]; Kd,FA, calculated from the IC50 values, using Eq. 6, 200 nM BODIPY-C16, 5 µM Cq-FABP): 2.15 ± 0.4 µM
Kd ([5]; Kd,FA, calculated from the Kd app,C16 values, using Eq. 5, 200 nM BODIPY-C16): 2.6 ± 0.3 µM

More lines, now with the values ahead:

Kd [7, 9]: 4.4 ± 0.8 µM
Kd [3, 10]: 5.8 ± 0.3 µM
IC50 [5, 8]: 7.67 µM
Kd [5, 11]: 7.4 ± 0.7 µM
Kd [5, 12]: 6.6 ± 0.5 µM
SMILES: CC/C=C\C/C=C\C/C=C\C/C=C\C/C=C\C/C=C\CCC(=O)O [DHA, cis-4,7,10,13,16,19-docosahexaenoic acid]

Kd [3, 10]: 2.9 ± 0.3 µM
IC50 [5, 8]: 2.29 µM
Kd [5, 11]: 2.2 ± 0.4 µM
Kd [5, 12]: 3.5 ± 0.4 µM
SMILES: CC/C=C\C/C=C\C/C=C\C/C=C\C/C=C\CCCC(=O)O [EPA, cis-5,8,11,14,17-eicosapentaenoic acid]

Kd [7, 9]: 3.3 ± 0.7 µM
Kd [3, 10]: 3.1 ± 0.5 µM
IC50 [5, 8]: 3.53 µM
Kd [5, 11]: 3.4 ± 0.4 µM
Kd [5, 12]: 3 ± 0.4 µM
SMILES: CCCCC/C=C\C/C=C\CCCCCCCC(=O)O [LA, linoleic acid]

Kd ([7]; fluorescence enhancement upon binding, 5 µM Cq-FABP, buffer C + 10% DMSO (Fig. S3B), read-out: Kd of cis-parinaric acid): 31.2 µM
SMILES: CC\C=C/C=C/C=C/C=C\CCCCCCCC(=O)O [cis-parinaric acid, reference compound]
